The results in this text go back to patent US20230174642A1, “AFFINITY-MATURATED ANTI-ASIC1a ANTIBODIES” (SHANGHAITECH UNIVERSITY, priority 2019, published 2023).

One experiment has as its target T1, ASIC1a (Homo sapiens, UniProt P78348).
T1 construct: expressed in transfected cells
T1 sequence (P78348 1-528): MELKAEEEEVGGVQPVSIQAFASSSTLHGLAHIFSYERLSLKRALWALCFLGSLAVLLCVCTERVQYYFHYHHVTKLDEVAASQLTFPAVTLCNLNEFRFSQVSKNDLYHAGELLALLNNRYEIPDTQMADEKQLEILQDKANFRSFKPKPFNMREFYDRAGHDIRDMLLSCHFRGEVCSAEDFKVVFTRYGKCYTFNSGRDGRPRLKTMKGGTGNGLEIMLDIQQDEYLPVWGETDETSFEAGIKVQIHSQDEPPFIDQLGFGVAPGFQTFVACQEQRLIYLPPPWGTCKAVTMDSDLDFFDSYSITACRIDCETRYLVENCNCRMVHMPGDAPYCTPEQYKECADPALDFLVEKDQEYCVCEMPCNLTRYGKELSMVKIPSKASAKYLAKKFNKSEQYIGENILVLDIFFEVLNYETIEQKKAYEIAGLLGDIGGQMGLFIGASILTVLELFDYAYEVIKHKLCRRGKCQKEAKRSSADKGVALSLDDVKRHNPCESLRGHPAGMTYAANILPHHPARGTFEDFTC
The experiment can be described thus: Patch clamp whole-cell recording of acid-induced hASIC1a currents. As to conditions: 30 μM amiloride, positive control; pH 7.4 to pH 6.0; read-out: inhibition of the acid-induced ASIC1a currents. The format is cell-based. As for the experimental part: FIGS. 4A-4E show the effect of affinity-matured ASC06-IgG1 derivative antibodies on the hASIC1a currents. Shown are the representative current traces recorded from single CHO-K1 cells stably expressing hASIC1a in the absence or presence of 100 nM ASC06-IgG1 (FIG. 4A) or affinity-matured ASC06-IgG1 versions ASC06-01-IgG1 (FIG. 4B), ASC06-02-IgG1 (FIG. 4C), ASC06-03-IgG1 (FIG. 4D), or ASC06-04-IgG1 (FIG. 4E). Amiloride (30 μM) was used as a positive control. “Wash” represents the recovery of the current after the treatment of 100 nM indicated antibody followed by 15 min infusion of washing solution.
Whether the affinity-matured ASC06-IgG1 derivative antibodies have an effect on the acid-induced, hASIC1a-mediated electrical current in cells was tested. An hASIC1a overexpressing stable cell line was used as a model for these studies. Extracellular pH was decreased from pH 7.4 to pH 6.0 and the amplitudes of the hASIC1a-mediated inward currents were recorded in the whole-cell recording mode in the presence of the affinity-matured ASC06-IgG1 derivative antibodies (FIGS. 4A-4E). The ASIC1a inhibitor amiloride (30 μM) was used as a positive control for the inhibition of ASIC1a currents.
A general note: In patch-clamp work, channel activity is measured electrically.

Experiment [1] deals with T2, hASIC1a on CHO-K1 cells stably expressing hASIC1a (human, UniProt P78348 1-528).
T2 sequence (looked up): T1 sequence (P78348 1-528)
The experiment can be described thus: cell-based or functional assay.

With `N=C(N)NC(=O)c1nc(Cl)c(N)nc1N` [amiloride, reference compound], the inhibition (usually the share of the control response that was lost under treatment) at 30 µM on ASIC1a was above 50%.

B1: ASC06-05-IgG1 (antibody, V domains shown)
VH: QVQLQQSGGGLVQPGGSLRLSCAASGFTFSSYAMSWVRQAPGKGLEWVSAISGSGGSTYYADSVKGRFTISRDNSKNTLYLQMNSLRAEDTAVYYCAKDSYFGRAKGSWGQGTLVTVSS
VL: QSALTQPASVSGSPGQSITISCTGTSSDVGAYNYVSWYQQQPGKAPKLMIYGVSNRPSGVSNRFSGSKSGNAASLTISGLQAEDEADYYCSSYTSSSTYVFGTGTKLTVLG
Consider B1, for which the “IC50 for the inhibition of ASIC1a currents, FMP assay” value in experiment [1] is 31 nM.
